{"source": "patent US6538145B2", "about": "“24-hydroxy vitamin D derivatives” (Chugai Seiyaku Kabushiki Kaisha, priority 1998, dated 2003)", "molecular_target": "T1, vitamin D receptor derived from chick intestine (Gallus gallus, UniProt O42392)", "T1 construct": "vitamin D receptor derived from chick intestine; from tissue; host or cells: chick intestine", "T1 sequence (O42392 1-451)": "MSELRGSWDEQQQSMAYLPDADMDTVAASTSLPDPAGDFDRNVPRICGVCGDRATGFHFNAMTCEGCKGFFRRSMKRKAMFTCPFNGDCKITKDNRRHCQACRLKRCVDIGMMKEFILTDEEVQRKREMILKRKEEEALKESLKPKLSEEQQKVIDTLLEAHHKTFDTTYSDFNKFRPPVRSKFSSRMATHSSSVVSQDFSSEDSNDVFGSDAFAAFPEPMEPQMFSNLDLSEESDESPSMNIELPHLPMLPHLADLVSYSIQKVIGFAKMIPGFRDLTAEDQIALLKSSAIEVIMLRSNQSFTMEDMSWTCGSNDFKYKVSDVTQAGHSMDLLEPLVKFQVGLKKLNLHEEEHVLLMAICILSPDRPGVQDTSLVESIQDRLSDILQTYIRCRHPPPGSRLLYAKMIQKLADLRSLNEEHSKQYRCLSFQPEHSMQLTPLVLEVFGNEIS", "assay": "Assay for binding to vitamin D receptor (VDR), radio receptor assay (RRA)", "conditions": "competition with 3H-1α,25-dihydroxyvitamin D3; test compound 1 to 100,000 nM; 4° C. for 3 hours; result in words only", "method": "By the radio receptor assay (RRA), compounds 1a and 1b of the present invention were tested for their ability to bind to vitamin D receptor derived from chick intestine.\n^3H-1α,25-dihydroxyvitamin D3 was dissolved in ethanol (20 μl) at a concentration of 10,000 dpm. Three test compounds, 1α,25-dihydroxyvitamin D3, compound la and compound 1b, were diluted with ethanol to give concentrations in the range of from 1 to 100,000 nM, respectively.\nTo each of small tubes, 20 μl of ^3H-1α,25 -dihydroxyvitamin D3 in solution and 50 μl of a test compound (i.e., 1α,25-dihydroxyvitamin D3, compound 1a or compound 1b) in solution were added. A solution of vitamin D receptor was prepared by dissolving 25 mg of VDR in 70 ml of 0.05M phosphate buffer solution containing 0.3 M KCl and 5 mM DTT (dithiothreitol) and 0.5 ml of the resulting solution was added to each tube, followed by mixing. […] To 0.5 ml of the supernatant, 5 ml of liquid scintillator was added for radioactivity measurement. The B/B0 value was calculated from the measurements (B: radioactivity measured in the presence of a test compound, B0: radioactivity measured in the absence of the test compound)."}
{"smiles": "C=C1C(=CC=C2CCCC3(C)C2CCC3C(C)CCC(O)C(C)(C)O)CC(O)C(OCCCO)C1O", "note": "[Compound 1a, (5Z,7E)-(1R,2R,3R,24S)-2-(3-hydroxypropoxy)-9,10-secocholesta-5,7,10(19)-triene-1,3,24,25-tetraol]", "values": [{"measurement": "affinity for the vitamin D receptor (B/B0, FIG. 1)", "value": "show affinity for the vitamin D receptor"}]}
